System: bacteria on healthy skin (back of the hand)
Experiment: Anti-microbial effectiveness of nitric oxide on volunteers' hands (swab, five zone dilution on agar, zone-based grading)
Format: in vivo
Excerpt: An experiment 46 used to determine the anti-microbial effectiveness of nitric oxide is illustrated in FIG. 3. In the experiment, five volunteers were selected 48. From a first hand of each volunteer, a technician using sterile gloves collected 50 a sample. This was accomplished by rubbing the back of the volunteer's hand with a sterile cotton collection swab for ten seconds. The swab was then applied 52 to a nutrient agar petri dish using the five corner or zone dilution method.
The five corner or zone dilution method involves mechanically diluting bacteria on a streak (blood agar) plate by sequentially spreading the bacteria across the plate in each of five zones. As the concentration of bacteria increases so do the number of zones containing bacteria. Bacteria on agar plate become visible as distinct circular colonies. Each colony represents an individual cell which has divided repeatedly to form a patch. The number of bacteria can be estimated by counting the number of patches or how far the bacteria is diluted by streaking it on the agar plate through the five zones.
After the sample was collected 50, the first hand was cleaned 54 using nitric oxide. This was done by placing the hand of the volunteer into a one-gallon plastic freezer bag. The bag was then inflated with nitric oxide through tubing attached to a portable nitric oxide generator. The open end of the bag was taped closed against the volunteer's forearm. A nitric oxide monitor assisted in keeping the nitric oxide concentration within the bag at 1,000 parts-per-million (ppm).
The volunteer maintained the hand inside the bag for fifteen minutes. After the fifteen minutes, the hand was removed from the bag in a sterile manner (i.e., the hand was not permitted to contact any non-sterile objects). Using sterile gloves and a sterile cotton collection swab, the technician collected 56 a second sample by rubbing the swab on the back of the hand for ten seconds. The swab was then applied 58 to a nutrient dish as explained above.
A similar process was followed with the volunteer's other hand. […]

[N]=O [nitric oxide]
reductions in colony counts of bacteria (bacteria exposed to nitric oxide, microbes on healthy skin): substantial reductions in colony counts
anti-microbial effects (direct comparison: immersing in enclosed environment of nitric oxide diluted with ambient air vs scrubbing with antibacterial soaps): superior to soaps
bacterial colony count (hands exposed to 1,000 ppm nitric oxide for fifteen minutes, compared with hands washed with DIAL antibacterial soap for 2 minutes, five volunteers): lower bacterial colony count
